Measured values published in the supplement of paper PMC10307832.

Legend:
Assay in all cases: relative viability (nuclei count vs DMSO), 5 days (fraction); higher = more cells survive
[1] = compound: C1COCCN1C2=NC(=NC3=C2OC4=C3C=CC=N4)C5=CC(=CC=C5)NC(=O)C6=CN=C(C=C6)N + CS(=O)(=O)N1CCN(Cc2cc3nc(-c4cccc5[nH]ncc45)nc(N4CCOCC4)c3s2)CC1 [Pictilisib] (partner 1 µM)
In short: (§1)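 Five library-drug doses in √10 steps were combined with a fixed anchor-drug dose, or a single drug was given alone, by pin tool to lung cancer cell lines in 1536-well plates the day after seeding. Nuclei were stained and counted after 5 days. Relative viability is the nuclei count in treated wells over that in vehicle wells, taken as the median of duplicate plates.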

SGI-1776 + Alpelisib = compound: CN1CCC(CNc2ccc3ncc(-c4cccc(OC(F)(F)F)c4)n3n2)CC1 [SGI-1776] + Cc1nc(NC(=O)N2CCC[C@H]2C(N)=O)sc1-c1ccnc(C(C)(C)C(F)(F)F)c1 [Alpelisib] (partner 2 µM)
In short: as §1

Entinostat + Phenformin = compound: Nc1ccccc1NC(=O)c1ccc(CNC(=O)OCc2cccnc2)cc1 [Entinostat] + N=C(N)NC(=N)NCCc1ccccc1 [Phenformin] (partner 250 µM)
In short: as §1

[2] = compound: C1COCCN1C2=NC(=NC3=C2OC4=C3C=CC=N4)C5=CC(=CC=C5)NC(=O)C6=CN=C(C=C6)N + CC(=O)Nc1cccc(-n2c(=O)n(C3CC3)c(=O)c3c(Nc4ccc(I)cc4F)n(C)c(=O)c(C)c32)c1 [Trametinib] (partner 0.02 µM)
In short: as §1

Cell Line	relative viability ([1]; first compound 0.02 µM)	relative viability ([1]; first compound 0.06325 µM)	relative viability ([1]; first compound 0.2 µM)	relative viability ([1]; first compound 0.6325 µM)	relative viability ([1]; first compound 2 µM)	relative viability (SGI-1776 + Alpelisib; first compound 0.08 µM)	relative viability (SGI-1776 + Alpelisib; first compound 0.8 µM)	relative viability (SGI-1776 + Alpelisib; first compound 2.53 µM)	relative viability (SGI-1776 + Alpelisib; first compound 8 µM)	relative viability (Entinostat + Phenformin; first compound 0.02 µM)	relative viability (Entinostat + Phenformin; first compound 0.06325 µM)	relative viability (Entinostat + Phenformin; first compound 0.2 µM)	relative viability (Entinostat + Phenformin; first compound 0.6325 µM)	relative viability (Entinostat + Phenformin; first compound 2 µM)	relative viability ([2]; first compound 0.02 µM)	relative viability ([2]; first compound 0.06325 µM)	relative viability ([2]; first compound 0.2 µM)	relative viability ([2]; first compound 0.6325 µM)	relative viability ([2]; first compound 2 µM)
NCI-H2087	0.881	0.848	0.876	0.807	0.642	1.1	1.06	1.18	0.997	0.425	0.474	0.416	0.319	0.168	0.209	0.178	0.234	0.193	0.173
NCI-H2126	0.455	0.524	0.486	0.521	0.442	0.735	0.733	0.751	0.676	0.53	0.512	0.535	0.452	0.363	0.592	0.569	0.618	0.547	0.45
NCI-H2170	0.328	0.316	0.299	0.299	0.304	0.858	0.835	0.697	0.635	0.466	0.407	0.444	0.376	0.297	0.936	0.987	0.84	0.919	0.399
NCI-H2228	0.486	0.346	0.38	0.234	0.256	0.776	0.636	0.727	0.239	0.285	0.334	0.395	0.22	0.207	0.578	0.615	0.449	0.48	0.454
NCI-H2347	0.735	0.703	0.601	0.619	0.497	1.1	1.07	1.1	1.01	0.378	0.243	0.234	0.181	0.151	0.302	0.264	0.289	0.314	0.258
NCI-H2405	0.431	0.45	0.414	0.428	0.423	0.865	0.766	0.739	0.383	0.392	0.462	0.414	0.352	0.358	0.478	0.722	0.672	0.553	0.418
NCI-H3122	0.621	0.588	0.531	0.515	0.451	0.707	0.837	0.868	0.757	0.411	0.395	0.389	0.321	0.22	0.275	0.249	0.233	0.229	0.175
PC-3 [JPC-3]	0.754	0.831	0.739	0.798	0.629	1.1	0.946	1.06	0.971	0.449	0.482	0.523	0.449	0.448	0.65	0.696	–	0.843	0.659
PC-14	0.903	1.05	0.512	0.558	0.261	1.12	0.956	0.976	0.757	0.761	0.61	0.662	0.309	0.076	0.758	0.932	0.682	0.633	0.229
RERF-LC-KJ	0.46	0.618	0.508	0.507	0.478	0.805	0.844	0.926	0.666	0.433	0.437	0.422	0.339	0.312	0.808	0.971	0.91	0.893	0.689
SK-LU-1	0.553	0.671	0.634	0.536	0.467	1.02	1.01	0.816	0.406	0.579	0.693	0.497	0.398	0.362	0.486	0.502	0.5	0.42	0.411
SK-MES-1	0.31	0.407	0.369	0.353	0.317	0.896	0.897	1.01	0.647	0.614	0.699	0.721	0.657	0.504	0.474	0.518	0.458	0.426	0.395
SW 1573	0.555	0.54	0.621	0.534	0.344	0.666	0.763	0.906	0.581	0.38	0.483	0.41	0.45	0.382	0.744	0.573	0.476	0.534	0.476
